Molecules are shown by their SMILES. Where a name gives a salt, the structure may show the parent alone.

For this experiment, the target named is T1, sigma-1 receptor (Cavia porcellus, UniProt Q60492).
T1 construct: Guinea pig brains were homogenized in 10 vols; (w/v) of Tris-HCl 50 mM 0.32 M sucrose, pH 7.4; from tissue; host or cells: guinea pig brain membranes
T1 sequence (Q60492 whole entry): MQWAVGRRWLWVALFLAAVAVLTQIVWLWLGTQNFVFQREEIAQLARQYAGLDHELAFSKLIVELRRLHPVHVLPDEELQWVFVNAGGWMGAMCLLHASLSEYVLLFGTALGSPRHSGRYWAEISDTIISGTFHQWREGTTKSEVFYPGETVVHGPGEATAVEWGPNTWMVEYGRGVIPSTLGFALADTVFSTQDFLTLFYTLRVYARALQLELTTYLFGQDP
The experiment can be described thus: Sigma-1 receptor binding assay, [3H]-(+)-pentazocine, guinea pig brain membranes. The note with it: radioligand [3H]-(+)-pentazocine 5.0 nM, 150 min at 37° C., nonspecific binding with 1 μM haloperidol. As to the method:
Brain membrane preparation and binding assays for the […] were performed as described (DeHaven-Hudkins, D. L., L. C. Fleissner, and F. Y. Ford-Rice, 1992, Characterization of the binding of [^3H](+)pentazocine to α recognition sites in guinea pig brain, Eur. J. Pharmacol. 227, 371-378) with some modifications. Guinea pig brains were homogenized in 10 vols. (w/v) of Tris-HCl 50 mM 0.32 M sucrose, pH 7.4, with a Kinematica Polytron PT 3000 at 15000 r.p.m. for 30 s. The homogenate was centrifuged at 1000 g for 10 min at 4° C. and the supernatants collected and centrifuged again at 48000 g for 15 min at 4° C. The pellet was resuspended in 10 volumes of Tris-HCl buffer (50 mM, pH 7.4), incubated at 37° C. for 30 min, and centrifuged at 48000 g for 20 min at 4° C. Following this, the pellet was re-suspended in fresh Tris-HCl buffer (50 mM, pH 7.4) and stored on ice until use.
The radioligand used was [^3H]-(+)-pentazocine at 5.0 nM and the final volume was 200 μl. The incubation was initiated with the addition of 100 μl of membrane at a final tissue concentration of approximately 5 mg tissue net weight/mL and the incubation time was 150 m. at 37° C. After incubation, the membranes were collected onto pretreated glass fiber filterplate (MultiScreen-FC, Millipore), with polyethylenimine 0.1%. The filters were washed two times with 200 μl of washing buffer (50 mM Tris Cl, pH=7.4) and then 25 μl of Ecoscint H liquid scintillation cocktail were added. Microplates were allowed to set for several hours and then quantified by liquid scintillation spectrophotometry (1450 Microbeta, Wallac). Nonspecific binding was determined with 1 μM haloperidol.
For orientation: Ki means a measure of affinity in units of concentration, obtained from inhibition or displacement. Lower therefore signals a stronger hold on the target. On to `c1ccc(-c2ncnc3c2cnn3CCN2CCCCC2)cc1` [Example 1, 4-phenyl-1-(2-(piperidin-1-yl)ethyl)-1H-pyrazolo[3,4-d]pyrimidine], for which affinity was put at a Ki of 99.6 nM.

`Cc1ccccc1-c1ncnc2c1cnn2CCN1CCCCC1` [Example 2, 1-(2-(piperidin-1-yl)ethyl)-4-o-tolyl-1H-pyrazolo[3,4-d]pyrimidine]: the Ki came to 73.8 nM.

Take `Cc1cccc(-c2ncnc3c2cnn3CCN2CCCCC2)c1` [Example 3, 1-(2-(piperidin-1-yl)ethyl)-4-m-tolyl-1H-pyrazolo[3,4-d]pyrimidine hydrochloride]: affinity was put at a Ki of 82.5 nM.

In turn, `Cc1noc(C)c1-c1ncnc2c1cnn2CCN1CCCCC1` [Example 6, 3,5-dimethyl-4-(1-(2-(piperidin-1-yl)ethyl)-1H-pyrazolo[3,4-d]pyrimidin-4-yl)isoxazole hydrochloride] showed a Ki of 72.4 nM.

Take `COc1ncccc1-c1ncnc2c1cnn2CCN1CCCCC1` [Example 10, 4-(2-methoxypyridin-3-yl)-1-(2-(piperidin-1-yl)ethyl)-1H-pyrazolo[3,4-d]pyrimidine]: the Ki stood at 112 nM.

`COc1ncccc1-c1ncnc2c1cnn2CCN1CCCCC1` [Example 11, 4-(2-methoxypyridin-3-yl)-1-(2-(piperidin-1-yl)ethyl)-1H-pyrazolo[3,4-d]pyrimidine (L)-tartrate] registered a Ki of 151 nM.

In the case of `CCOc1ccccc1-c1ncnc2c1cnn2CCN1CCCCC1` [Example 13, 4-(2-ethoxyphenyl)-1-(2-(piperidin-1-yl)ethyl)-1H-pyrazolo[3,4-d]pyrimidine hydrochloride], the Ki came out at 300 nM.

Consider `Fc1ccc(-c2ncnc3c2cnn3CCN2CCCCC2)cc1` [Example 14, 4-(4-fluorophenyl)-1-(2-(piperidin-1-yl)ethyl)-1H-pyrazolo[3,4-d]pyrimidine], for which affinity was put at a Ki of 95.4 nM.

Compound `Cn1nc(C(F)(F)F)cc1-c1ncnc2c1cnn2CCN1CCCCC1` [Example 16, 4-(1-methyl-3-(trifluoromethyl)-1H-pyrazol-5-yl)-1-(2-(piperidin-1-yl)ethyl)-1H-pyrazolo[3,4-d]pyrimidine] had a Ki of 137 nM.

Consider `Cc1cncc(-c2ncnc3c2cnn3CCN2CCCCC2)c1` [Example 18, 4-(5-methylpyridin-3-yl)-1-(2-(piperidin-1-yl)ethyl)-1H-pyrazolo[3,4-d]pyrimidine], for which the Ki came to 447 nM.

In turn, `Clc1ccc(-c2ncnc3c2cnn3CCN2CCCCC2)s1` [Example 20, 4-(5-chlorothiophen-2-yl)-1-(2-(piperidin-1-yl)ethyl)-1H-pyrazolo[3,4-d]pyrimidine] had a Ki of 35 nM.

In turn, `Clc1ccc(-c2ncnc3c2cnn3CCN2CCCCC2)cc1` [Example 21, 4-(4-chlorophenyl)-1-(2-(piperidin-1-yl)ethyl)-1H-pyrazolo[3,4-d]pyrimidine] returned a Ki of 42.6 nM.

With `Cc1ccc(Cl)c(-c2ncnc3c2cnn3CCN2CCCCC2)c1` [Example 25, 4-(2-chloro-5-methylphenyl)-1-(2-(piperidin-1-yl)ethyl)-1H-pyrazolo[3,4-d]pyrimidine], the Ki came out at 31.2 nM.

For `Cc1ccc(C)c(-c2ncnc3c2cnn3CCN2CCCCC2)c1` [Example 26, 4-(2,5-dimethylphenyl)-1-(2-(piperidin-1-yl)ethyl)-1H-pyrazolo[3,4-d]pyrimidine], the affinity, expressed as Ki, was 55.4 nM.

On to `Cn1cccc1-c1ncnc2c1cnn2CCN1CCCCC1` [Example 27, 4-(1-methyl-1H-pyrrol-2-yl)-1-(2-(piperidin-1-yl)ethyl)-1H-pyrazolo[3,4-d]pyrimidine], for which the Ki was found to be 31.5 nM.

The compound `COc1cc(F)ccc1-c1ncnc2c1cnn2CCN1CCCCC1` [Example 28, 4-(4-fluoro-2-methoxyphenyl)-1-(2-(piperidin-1-yl)ethyl)-1H-pyrazolo[3,4-d]pyrimidine] registered a Ki of 39.2 nM.

In turn, `Cc1cc(F)ccc1-c1ncnc2c1cnn2CCN1CCCCC1` [Example 29, 4-(4-fluoro-2-methylphenyl)-1-(2-(piperidin-1-yl)ethyl)-1H-pyrazolo[3,4-d]pyrimidine] returned a Ki of 48.4 nM.

On to `Fc1ccc(-c2ncnc3c2cnn3CCN2CCCCC2)c(C(F)(F)F)c1` [Example 34, 4-(4-fluoro-2-(trifluoromethyl)phenyl)-1-(2-(piperidin-1-yl)ethyl)-1H-pyrazolo[3,4-d]pyrimidine], for which the Ki stood at 57 nM.

For the compound `Clc1ccccc1-c1ncnc2c1cnn2CCN1CCCCC1` [Example 35, 4-(2-chlorophenyl)-1-(2-(piperidin-1-yl)ethyl)-1H-pyrazolo[3,4-d]pyrimidine], the affinity corresponds to a Ki of 75.7 nM.

For the compound `c1nc(-c2cnsc2)c2cnn(CCN3CCCCC3)c2n1` [Example 36, 4-(1-(2-(piperidin-1-yl)ethyl)-1H-pyrazolo[3,4-d]pyrimidin-4-yl)isothiazole], the Ki came to 475 nM.

In the case of `FC(F)(F)c1ccccc1-c1ncnc2c1cnn2CCN1CCCCC1` [Example 38, 1-(2-(piperidin-1-yl)ethyl)-4-(2-(trifluoromethyl)phenyl)-1H-pyrazolo[3,4-d]pyrimidine], the Ki is 125 nM.

Compound `Fc1ccc(-c2ncnc3c2cnn3CCN2CCCCC2)c(F)c1` [Example 39, 4-(2,4-difluorophenyl)-1-(2-(piperidin-1-yl)ethyl)-1H-pyrazolo[3,4-d]pyrimidine] yielded a Ki of 81.6 nM.

`Fc1ccc(-c2ncnc3c2cnn3CCN2CCCCC2)c(Cl)c1` [Example 42, 4-(2-chloro-4-fluorophenyl)-1-(2-(piperidin-1-yl)ethyl)-1H-pyrazolo[3,4-d]pyrimidine] showed a Ki of 27 nM.

As to `Fc1ccc(-c2ncnc3c2cnn3CCN2CCC(F)(F)CC2)c(Cl)c1` [Example 44, 4-(2-chloro-4-fluorophenyl)-1-(2-(4,4-difluoropiperidin-1-yl)ethyl)-1H-pyrazolo[3,4-d]pyrimidine], the Ki is 318 nM.

As for `Fc1cc(Cl)ccc1-c1ncnc2c1cnn2CCN1CCCCC1` [Example 46, 4-(4-chloro-2-fluorophenyl)-1-(2-(piperidin-1-yl)ethyl)-1H-pyrazolo[3,4-d]pyrimidine], the affinity corresponds to a Ki of 112 nM.

Compound `CN(CCn1ncc2c(-c3ccccc3Cl)ncnc21)Cc1ccc(F)cc1` [Example 47, 2-(4-(2-chlorophenyl)-1H-pyrazolo[3,4-d]pyrimidin-1-yl)-N-(4-fluorobenzyl)-N-methylethanamine] had a Ki of 76.6 nM.

Turning to `CN(CCn1ncc2c(-c3ccnn3C)ncnc21)Cc1ccc(F)cc1` [Example 48, N-(4-fluorobenzyl)-N-methyl-2-(4-(1-methyl-1H-pyrazol-5-yl)-1H-pyrazolo[3,4-d]pyrimidin-1-yl)ethanamine], the Ki is 34.1 nM.

For the compound `CN(CCn1ncc2c(-c3ccc(F)cc3Cl)ncnc21)Cc1ccc(F)cc1` [Example 49, 2-(4-(2-chloro-4-fluorophenyl)-1H-pyrazolo[3,4-d]pyrimidin-1-yl)-N-(4-fluorobenzyl)-N-methylethanamine], the affinity, expressed as Ki, was 61.7 nM.
